Data taken from patent US9161989B2, “Cupredoxin derived transport agents and methods of use thereof” (priority 2004, dated 2015).
Where two headings read alike, the source gives them in different places.

System: UISO-MeI-2 cells
Assay type: cell-based

Compound | Effect on uptake of azurin in UISO-MeI-2 cells | Effect on uptake of azurin in UISO-MeI-2 cells (20 pM)
C[C@H]1CCC/C=C/[C@@H]2C[C@H](O)C[C@H]2[C@H](O)/C=C/C(=O)O1 [Brefeldin A] | no significant effect | –
carbonyl cyanide m-chlorophrnylhydrazone [CCCP] | – | significantly reduced
C=C1[C@@H](C)[C@H]2[C@H](Cc3ccccc3)NC(=O)[C@]23[C@H](OC(C)=O)/C=C/[C@@](C)(O)C(=O)[C@@H](C)C/C=C/[C@H]3[C@@H]1O [cytochalasin D] | significantly reduced | –
